Test results published in patent US10653146B2, “Microbiocidal oxadiazole derivatives” (SYNGENTA PARTICIPATIONS AG, priority 2016, dated 2020).

Legend:
[1] = system: Glomerella lagenarium (Colletotrichum lagenarium); assay: Fungicidal activity against Glomerella lagenarium (Colletotrichum lagenarium) liquid culture / cucumber / preventative (anthracnose); format: cell-based; settings: Colletotrichum orbiculare; 20 ppm in the applied formulation; liquid culture in PDB, 24° C.; 3 to 4 days after application; read-out: disease control compared to untreated control (inhibition of growth measured photometrically)
Procedure: Mycelia fragments or conidia suspensions of a fungus prepared either freshly from liquid cultures of the fungus or from cryogenic storage, are directly mixed into nutrient broth. DMSO solutions of the test compound (max. 10 mg/ml) are diluted with 0.025% Tween20 by a factor of 50 and 10 μl of this solution is pipetted into a microtiter plate (96-well format). The nutrient broth containing the fungal spores/mycelia fragments is then added to give an end concentration of the tested compound. The test plates are incubated in the dark at 24° C. and 96% relative humidity. The inhibition of fungal growth is determined photometrically after 2 to 7 days, depending on the pathosystem, and percent antifungal activity relative to the untreated check is calculated.
Conidia of the fungus from cryogenic storage are directly mixed into nutrient broth (PDB—potato dextrose broth). After placing a (DMSO) solution of test compound into a microtiter plate (96-well format), the nutrient broth containing the fungal spores is added. The test plates are incubated at 24° C. and the inhibition of growth is measured photometrically 3 to 4 days after application.
The following compounds at 20 ppm in the applied formulation give at least 80% disease control in this test when compared to untreated control under the same conditions, which show extensive disease development.

[2] = system: Puccinia recondita f. Sp. Tritici; assay: Fungicidal activity against Puccinia recondita f. sp. tritici / wheat / leaf disc preventative (brown rust); format: in vivo; settings: foliar, 200 ppm in the applied formulation, wheat leaf segments cv. Kanzler, inoculated 1 day after application, assessed 7 to 9 days after application, read-out: disease control compared to untreated control leaf disks
Procedure: Leaf disks or leaf segments of various plant species are cut from plants grown in a greenhouse. The cut leaf disks or segments are placed in multiwell plates (24-well format) onto water agar. The leaf disks are sprayed with a test solution before (preventative) or after (curative) inoculation. Compounds to be tested are prepared as DMSO solutions (max. 10 mg/ml) which are diluted to the appropriate concentration with 0.025% Tween20 just before spraying. The inoculated leaf disks or segments are incubated under defined conditions (temperature, relative humidity, light, etc.) according to the respective test system. A single evaluation of disease level is carried out 3 to 14 days after inoculation, depending on the pathosystem. Percent disease control relative to the untreated check leaf disks or segments is then calculated. Wheat leaf segments cv. Kanzler were placed on agar in multiwell plates (24-well format) and sprayed with the formulated test compound diluted in water. The leaf disks were inoculated with a spore suspension of the fungus 1 day after application. The inoculated leaf segments were incubated at 19° C. and 75% relative humidity (rh) under a light regime of 12 hours light/12 hours darkness in a climate cabinet and the activity of a compound was assessed as percent disease control compared to untreated when an appropriate level of disease damage appears in untreated check leaf segments (7 to 9 days after application). The following compounds at 200 ppm in the applied formulation give at least 80% disease control in this test when compared to untreated control leaf disks under the same conditions, which show extensive disease development.

[3] = system: Puccinia recondite f. Sp. Tritici; assay: Fungicidal activity against Puccinia recondite f. sp. tritici / wheat / leaf disc curative (brown rust); format: in vivo; settings: foliar, 200 ppm in the applied formulation, wheat leaf segments cv. Kanzler, applied 1 day after inoculation, assessed 6 to 8 days after application, read-out: disease control compared to untreated control leaf disks
Procedure: Leaf disks or leaf segments of various plant species are cut from plants grown in a greenhouse. The cut leaf disks or segments are placed in multiwell plates (24-well format) onto water agar. The leaf disks are sprayed with a test solution before (preventative) or after (curative) inoculation. Compounds to be tested are prepared as DMSO solutions (max. 10 mg/ml) which are diluted to the appropriate concentration with 0.025% Tween20 just before spraying. The inoculated leaf disks or segments are incubated under defined conditions (temperature, relative humidity, light, etc.) according to the respective test system. A single evaluation of disease level is carried out 3 to 14 days after inoculation, depending on the pathosystem. Percent disease control relative to the untreated check leaf disks or segments is then calculated.
Wheat leaf segments cv. Kanzler are placed on agar in multiwell plates (24-well format). The leaf segments are then inoculated with a spore suspension of the fungus. Plates were stored in darkness at 19° C. and 75% relative humidity. The formulated test compound diluted in water was applied 1 day after inoculation. The leaf segments were incubated at 19° C. and 75% relative humidity under a light regime of 12 hours light/12 hours darkness in a climate cabinet and the activity of a compound was assessed as percent disease control compared to untreated when an appropriate level of disease damage appears in untreated check leaf segments (6 to 8 days after application).
The following compounds at 200 ppm in the applied formulation give at least 80% disease control in this test when compared to untreated control leaf disks under the same conditions, which show extensive disease development.

Row | Compound | inhibition at 20 ppm [1] [%] | pest or weed control at 200 ppm [2] [%] | pest or weed control at 200 ppm [3] [%]
1 | CN(C)CCNC(=O)C(=O)c1ccc(-c2noc(C(F)(F)F)n2)cc1 [Compound 1.2, N-[2-(dimethyl-amino)ethyl]-2-oxo-2-[4-[5-(trifluoromethyl)-1,2,4-oxadiazol-3-yl]phenyl]acetamide] | ≥ 80 |  | 
2 | CON1CCN(C(=O)C(=O)c2ccc(-c3noc(C(F)(F)F)n3)cc2)CC1 [Compound 1.3, 1-(4-methoxypiperazin-1-yl)-2-[4-[5-(trifluoromethyl)-1,2,4-oxadiazol-3-yl]phenyl]ethane-1,2-dione] | ≥ 80 | ≥ 80 | 
3 | O=C(NOCC(F)F)C(=O)c1ccc(-c2noc(C(F)(F)F)n2)cc1 [Compound 1.4, N-(2,2-difluoroethoxy)-2-oxo-2-[4-[5-(trifluoromethyl)-1,2,4-oxadiazol-3-yl]phenyl]acetamide] | ≥ 80 | ≥ 80 | 
4 | CN(C)C(=O)C(=O)c1ccc(-c2noc(C(F)(F)F)n2)cc1 [Compound 1.5, N,N-dimethyl-2-oxo-2-[4-[5-(trifluoromethyl)-1,2,4-oxadiazol-3-yl]phenyl]acetamide] | ≥ 80 | ≥ 80 | ≥ 80
5 | C=CCONC(=O)C(=O)c1ccc(-c2noc(C(F)(F)F)n2)cc1 [Compound 1.6, N-allyloxy-2-oxo-2-[4-[5-(trifluoromethyl)-1,2,4-oxadiazol-3-yl]phenyl]acetamide] |  | ≥ 80 | 
6 | O=C(NCC(F)F)C(=O)c1ccc(-c2noc(C(F)(F)F)n2)cc1 [Compound 1.10, N-(2,2-difluoroethyl)-2-oxo-2-[4-[5-(trifluoromethyl)-1,2,4-oxadiazol-3-yl]phenyl]acetamide] | ≥ 80 | ≥ 80 | ≥ 80
7 | CC(=O)NCCNC(=O)C(=O)c1ccc(-c2noc(C(F)(F)F)n2)cc1 [Compound 1.11, N-(2-acetamidoethyl)-2-oxo-2-[4-[5-(trifluoromethyl)-1,2,4-oxadiazol-3-yl]phenyl]acetamide] | ≥ 80 | ≥ 80 | ≥ 80
8 | CCCN(C)C(=O)C(=O)c1ccc(-c2noc(C(F)(F)F)n2)cc1 [Compound 1.22, N-methyl-2-oxo-N-propyl-2-[4-[5-(trifluoromethyl)-1,2,4-oxadiazol-3-yl]phenyl]acetamide] | ≥ 80 | ≥ 80 | ≥ 80
9 | CSCCNC(=O)C(=O)c1ccc(-c2noc(C(F)(F)F)n2)cc1 [Compound 1.23, N-(2-methyl-sulfanylethyl)-2-oxo-2-[4-[5-(trifluoromethyl)-1,2,4-oxadiazol-3-yl]phenyl]acetamide] | ≥ 80 | ≥ 80 | ≥ 80
10 | O=C(NCC1COCCO1)C(=O)c1ccc(-c2noc(C(F)(F)F)n2)cc1 (stereo not shown) [Compound 1.28, N-(1,4-dioxan-2-ylmethyl)-2-oxo-2-[4-[5-(trifluoromethyl)-1,2,4-oxadiazol-3-yl]phenyl]acetamide] | ≥ 80 | ≥ 80 | ≥ 80
11 | Cc1ccsc1CN(C)C(=O)C(=O)c1ccc(-c2noc(C(F)(F)F)n2)cc1 [Compound 1.29, N-methyl-N-[(3-methyl-2-thienyl)methyl]-2-oxo-2-[4-[5-(trifluoromethyl)-1,2,4-oxadiazol-3-yl]phenyl]acetamide] | ≥ 80 |  | 
12 | COCCN(CCOC)C(=O)C(=O)c1ccc(-c2noc(C(F)(F)F)n2)cc1 [Compound 1.30, N,N-bis(2-methoxyethyl)-2-oxo-2-[4-[5-(trifluoromethyl)-1,2,4-oxadiazol-3-yl]phenyl]acetamide] | ≥ 80 |  | ≥ 80
13 | CN(C(=O)C(=O)c1ccc(-c2noc(C(F)(F)F)n2)cc1)c1ccccc1 [Compound 1.33, N-methyl-2-oxo-N-phenyl-2-[4-[5-(trifluoromethyl)-1,2,4-oxadiazol-3-yl]phenyl]acetamide] | ≥ 80 |  | 
